Results taken from the NIST ThermoML archive (doi:10.1021/je800110r).

Conditions: 283.15 K, Liquid, Vibrating tube method

CCCCCCCCCC [decane]
Conditions | mass density [kg/m3]
7092 kPa | 742.4
7106 kPa | 742.5
7121 kPa | 742.6
7134 kPa | 742.5
7192 kPa | 742.7
7205 kPa | 742.5
7258 kPa | 742.6
7275 kPa | 742.6
7296 kPa | 742.6
7315 kPa | 742.8
7327 kPa | 742.7
7342 kPa | 742.7
7357 kPa | 742.7
7374 kPa | 742.7
7387 kPa | 742.8
7404 kPa | 742.6
7420 kPa | 742.9
7435 kPa | 742.8
7452 kPa | 742.7
7466 kPa | 742.7
7484 kPa | 742.8
7505 kPa | 742.8
7518 kPa | 742.8
7534 kPa | 742.8
7548 kPa | 742.7
7567 kPa | 742.9
7581 kPa | 742.8
7595 kPa | 742.8
7611 kPa | 742.9
7628 kPa | 742.9
7643 kPa | 742.9
7658 kPa | 742.9
7697 kPa | 743.1
7710 kPa | 743
7722 kPa | 743
7735 kPa | 743
7783 kPa | 743
7795 kPa | 743
7814 kPa | 743.1
7830 kPa | 742.9
7845 kPa | 743.1
7855 kPa | 743
7867 kPa | 743.1
7879 kPa | 743.1
7891 kPa | 743.1
7903 kPa | 743.1
7915 kPa | 743
7926 kPa | 743.1
7942 kPa | 743.2
7957 kPa | 743.2
7975 kPa | 743.1
7991 kPa | 743
8004 kPa | 743.1
8018 kPa | 743.1
8033 kPa | 743.2
8045 kPa | 743.2
8060 kPa | 743.2
8078 kPa | 743.1
8091 kPa | 743.2
8112 kPa | 743.4
8127 kPa | 743.2
8143 kPa | 743.3
8159 kPa | 743.2
8171 kPa | 743.4
8318 kPa | 743.4
8332 kPa | 743.4
8347 kPa | 743.4
8361 kPa | 743.3
8376 kPa | 743.4
8392 kPa | 743.5
8412 kPa | 743.4
8430 kPa | 743.4
8446 kPa | 743.4
8462 kPa | 743.4
8478 kPa | 743.5
8497 kPa | 743.6
8513 kPa | 743.5
8529 kPa | 743.6
8546 kPa | 743.5
8563 kPa | 743.6
8580 kPa | 743.5
8596 kPa | 743.5
8612 kPa | 743.6
8631 kPa | 743.7
8648 kPa | 743.7
8660 kPa | 743.6
8677 kPa | 743.6
8695 kPa | 743.6
8706 kPa | 743.7
8720 kPa | 743.7
8735 kPa | 743.8
8747 kPa | 743.7
8762 kPa | 743.7
8774 kPa | 743.8
8790 kPa | 743.7
8804 kPa | 743.7
8818 kPa | 743.6
8832 kPa | 743.9
8862 kPa | 743.6
8890 kPa | 743.7
9095 kPa | 743.9
9109 kPa | 743.9
9124 kPa | 744
9134 kPa | 743.9
9147 kPa | 743.8
9162 kPa | 744
9174 kPa | 744
9189 kPa | 743.9
9203 kPa | 744.1
9220 kPa | 744
9233 kPa | 744.1
9250 kPa | 744.1
9261 kPa | 744
9274 kPa | 744.1
9287 kPa | 744
9304 kPa | 744
9315 kPa | 744
9326 kPa | 744.1
9337 kPa | 744.2
9354 kPa | 744.1
9373 kPa | 744.2
9384 kPa | 744.1
9396 kPa | 744.1
9406 kPa | 744.2
9419 kPa | 744.2
9429 kPa | 744.2
9442 kPa | 744
9452 kPa | 744.2
9464 kPa | 744.2
9476 kPa | 744.2
9488 kPa | 744.1
9499 kPa | 744.1
9517 kPa | 744.3
9532 kPa | 744.2
9543 kPa | 744.3
9556 kPa | 744.2
9564 kPa | 744.3
9577 kPa | 744.1
9588 kPa | 744.2
9597 kPa | 744.3
9605 kPa | 744.2
9614 kPa | 744.3
9623 kPa | 744.3
9633 kPa | 744.3
9642 kPa | 744.3
9651 kPa | 744.3
9663 kPa | 744.4
9675 kPa | 744.4
9685 kPa | 744.4
9695 kPa | 744.3
9704 kPa | 744.3
9726 kPa | 744.3
9736 kPa | 744.5
9746 kPa | 744.3
9758 kPa | 744.3
9766 kPa | 744.3
9777 kPa | 744.4
9784 kPa | 744.2
9795 kPa | 744.3
9803 kPa | 744.3
9814 kPa | 744.5
9822 kPa | 744.5
9835 kPa | 744.4
9845 kPa | 744.4
9855 kPa | 744.5
9870 kPa | 744.4
9880 kPa | 744.4
9892 kPa | 744.5
9905 kPa | 744.5
9914 kPa | 744.5
9923 kPa | 744.5
9931 kPa | 744.5
9940 kPa | 744.5
9949 kPa | 744.5
9961 kPa | 744.5
9973 kPa | 744.5
9982 kPa | 744.6
9992 kPa | 744.5
10001 kPa | 744.6
10013 kPa | 744.5
10022 kPa | 744.5
10032 kPa | 744.6
10042 kPa | 744.5
10056 kPa | 744.6
10066 kPa | 744.7
10076 kPa | 744.6
10086 kPa | 744.5
10097 kPa | 744.5
10108 kPa | 744.5
10119 kPa | 744.6
10131 kPa | 744.6
10144 kPa | 744.6
10160 kPa | 744.6
10170 kPa | 744.6
10185 kPa | 744.6
10195 kPa | 744.6
10205 kPa | 744.6
10215 kPa | 744.7
10224 kPa | 744.7
10234 kPa | 744.6
10242 kPa | 744.7
10252 kPa | 744.7
10263 kPa | 744.8
10274 kPa | 744.8
10285 kPa | 744.6
10295 kPa | 744.7
10305 kPa | 744.7
10317 kPa | 744.7
10331 kPa | 744.7
10342 kPa | 744.8
10353 kPa | 744.7
10374 kPa | 744.8
10384 kPa | 744.8
10397 kPa | 744.8
10407 kPa | 744.8
10445 kPa | 744.8
10457 kPa | 745
10500 kPa | 744.9
10514 kPa | 744.9
10540 kPa | 744.9
10683 kPa | 745
10698 kPa | 745.1
10709 kPa | 745
10720 kPa | 745.1
10735 kPa | 745.1
10744 kPa | 745
10761 kPa | 745
10780 kPa | 745
10791 kPa | 745.2
10802 kPa | 745.1
10816 kPa | 745.1
10830 kPa | 745
10841 kPa | 745.1
10852 kPa | 745.2
10867 kPa | 745.1
10880 kPa | 745.2
10894 kPa | 745.2
10907 kPa | 745.1
10924 kPa | 745.1
10938 kPa | 745.2
10953 kPa | 745.3
10965 kPa | 745.2
10983 kPa | 745.2
11010 kPa | 745.1
11026 kPa | 745.2
11036 kPa | 745.2
11049 kPa | 745.3
11068 kPa | 745.2
11079 kPa | 745.3
11097 kPa | 745.2
11109 kPa | 745.3
11124 kPa | 745.3
11134 kPa | 745.3
11149 kPa | 745.3
11159 kPa | 745.2
11173 kPa | 745.3
11183 kPa | 745.5
11197 kPa | 745.3
11207 kPa | 745.3
11227 kPa | 745.3
11242 kPa | 745.4
11258 kPa | 745.5
11268 kPa | 745.4
11284 kPa | 745.4
11299 kPa | 745.5
11309 kPa | 745.4
11322 kPa | 745.4
11339 kPa | 745.5
11351 kPa | 745.5
11366 kPa | 745.5
11378 kPa | 745.4
11399 kPa | 745.5
11416 kPa | 745.6
